Measurements published in US20050148786A1, “Diimmonium compound and use thereof” (Nippon Kayaku Kabushiki Kaisha, priority 2003, published 2005).

Columns and labels:
[1] = Comparative test of molar absorption coefficient measurement; assay type: physicochemical; settings: in dichloromethane; in M-1·cm-1
Excerpt: The compounds obtained in the above-mentioned Examples were subjected to the measurement of molar absorption coefficient (ε) in dichloromethane.

[2] = Stability test of heat resistance of near-IR absorption filter; assay type: physicochemical; settings: for b* value, initial period / b* value, 14-day after: acrylic resin filter; for b* value, initial period: before test; for b* value, 14-day after / b* value, difference: oven at 80° C.; for b* value, 14-day after: head prints 14-day, text 21 days; for b* value, difference: after minus initial
Method: (§1) 1.2 part of each compound obtained in each Example was dissolved in 18.8 part of MEK. 80 part of a resin solution obtained by dissolving 25 part of an acrylic resin (Dianal BR-80, manufactured by Mitsubishi Rayon Co., Ltd.) in 75 part of MEK was mixed with the obtained solution to obtain a solution for coating. The solution was applied to form a film with a thickness of 2 to 4 μm on a polyester film and dried at 80° C. to obtain a near-IR absorption filter of the invention.
[…] After that, the filters were subjected to color measurement by a spectrophotometer to calculate L*, a*, and b* values and their stability was evaluated based on the change in b* values. If the b* is low, that is, the absorption in visible ray region is low, the near-IR absorption filter is preferable.

[3] = Stability test of moisture-and-heat resistance of near-IR absorption filter; assay type: physicochemical; settings: for b* value, difference: 14-day after minus initial, 60° C. and 95% RH; for b* value, 14-day after / b* value, initial period: acrylic resin filter; for b* value, 14-day after: 14 days at 60° C. and 95% RH; for b* value, initial period: before test
Method: as §1
The obtained near-IR absorption filter was subjected to a stability test of moisture-and-heat resistance for 14 days in a constant temperature and constant humidity apparatus under 60° C. and 95% RH conditions. The filter was subjected to color measurement by a spectrophotometer before and after the test to calculate L*, a*, and b* values. If the + value of b* value is high, it means that the hue is yellowish and if b* value is close to 0, it means that the yellowish degree is low and filter is desirable and therefore, the hue evaluation and stability evaluation were done based on the b* value and its change.

[4] = Comparative test of solubility measurement; settings: room temperature; for solubility in MEK: methyl ethyl ketone
Method: The solubility was measured for the compounds obtained in the above-mentioned Examples at a room temperature in methyl ethyl ketone (MEK) and toluene.

[5] = maximum absorption wavelength (λmax) in dichloromethane; assay type: physicochemical
Excerpt: λmax: 1,102 nm (in dichloromethane);

[6] = thermal decomposition point (weight decrease starting point) by TG-DTA; assay type: physicochemical; settings: measured by TG-DTA
Method: the melting point: around 170° C.; and the thermal decomposition point (the weight decrease starting point): around 280° C. (measured by TG-DTA)

[7] = Stability test of light fastness of diimmonium compound thin film; assay type: physicochemical
Method: 0.1 part of the Compound No. 3 was added to 10 part of tetrafluoropropanol to produce a coating solution. The obtained coating solution was applied to a polycarbonate substrate by spin coating to form a thin film of the diimmonium compound. The […] source output: 0.36 W/m^2; bath temperature: 24° C.; black panel temperature: 40° C.; humidity: 30% RH: by a Weatherometer (Ci4000, manufactured by Atlas Co.). After that, the remaining ratio of the diimmonium compound was measured by a spectrophotometer.
For comparison, a dye film was formed and evaluated in the same manner, except that the compound described in Patent Document No. 3; hexafluoroantimonate of tetrakis[p-di(n-butyl)aminophenyl]phenylenediimmonium (Comparative Example 8: Compound No. 153); was used in place of the Compound No. 3.

[8] = Stability test of light fastness of cyanine dye film; assay type: physicochemical
Method: 0.3 part of the cyanine dye (OM-57) was dissolved in 15 part of tetrafluoropropanol and 0.04 part of the Compound No. 3 was added to the obtained solution to produce a coating solution. The obtained coating solution was applied to a polycarbonate substrate by spin coating to form a dye film. The […] the conditions: light source output: 0.36 W/m^2; bath temperature: 24° C.; black panel temperature: 40° C.; humidity: 30% RH: by a Weatherometer (Ci4000, manufactured by Atlas Co.). After that, the remaining ratio of the cyanine dye was measured by a spectrophotometer.
For comparison, a dye film was formed and evaluated in the same manner, except that the compound described in Patent Document No. 3; hexafluoroantimonate of tetrakis[p-di(n-butyl)aminophenyl]phenylenediimmonium (Comparative Example 7: Compound No. 153); was used in place of the Compound No. 1.

[9] = Weatherometer 0.36 W/m^2, 24° C., 30% RH, 100-hour
[10] = Weatherometer 0.36 W/m^2, 24° C., 30% RH, 150-hour

Structure (SMILES): CCCCN(CCCC)c1ccc([N+](=C2C=CC(=[N+](c3ccc(N(CCCC)CCCC)cc3)c3ccc(N(CCCC)CCCC)cc3)C=C2)c2ccc(N(CCCC)CCCC)cc2)cc1.O=S(=O)([O-])c1ccc2c(S(=O)(=O)[O-])cccc2c1O [Compound No. 152, 1-hydroxy-2,5-naphthalenedisulfonic acid salt of N,N,N′,N′-tetrakis[p-di(n-butyl)aminophenyl]phenylenediimmonium, reference compound]
- molar absorption coefficient (ε) [1]: 24,500

Structure (SMILES): CC(C)CCN(CCC(C)C)c1ccc([N+](=C2C=CC(=[N+](c3ccc(N(CCC(C)C)CCC(C)C)cc3)c3ccc(N(CCC(C)C)CCC(C)C)cc3)C=C2)c2ccc(N(CCC(C)C)CCC(C)C)cc2)cc1.O=S(=O)([N-]S(=O)(=O)C(F)(F)F)C(F)(F)F.O=S(=O)([N-]S(=O)(=O)C(F)(F)F)C(F)(F)F [Compound No. 4]
- b* value, initial period [2]: 2.4
- b* value, 14-day after [2]: 3.8
- b* value, difference [2]: 1.6
- b* value, difference [3]: 2.1
- b* value, 14-day after [3]: 4.3
- b* value, initial period [3]: 2.2
- solubility in MEK [4]: 10%
- solubility in toluene [4]: 0.1%
- molar absorption coefficient (ε) [1]: 110,000
- λmax [5]: 1,102 nm
- thermal decomposition point (the weight decrease starting point) [6]: around 280 °C

Structure (SMILES): CCCCN(CCCC)c1ccc([N+](=C2C=CC(=[N+](c3ccc(N(CCCC)CCCC)cc3)c3ccc(N(CCCC)CCCC)cc3)C=C2)c2ccc(N(CCCC)CCCC)cc2)cc1.O=S(=O)([O-])c1cccc2c(S(=O)(=O)[O-])cccc12 [Compound No. 151, 1,5-naphthalenedisulfonic acid salt of N,N,N′,N′-tetrakis[p-di(n-butyl)aminophenyl]phenylenediimmonium, reference compound]
- molar absorption coefficient (ε) [1]: 82,000

Structure (SMILES): CCCCN(CCCC#N)c1ccc([N+](=C2C=CC(=[N+](c3ccc(N(CCCC)CCCC#N)cc3)c3ccc(N(CCCC)CCCC#N)cc3)C=C2)c2ccc(N(CCCC)CCCC#N)cc2)cc1.O=S(=O)([N-]S(=O)(=O)C(F)(F)F)C(F)(F)F.O=S(=O)([N-]S(=O)(=O)C(F)(F)F)C(F)(F)F [Compound No. 35]
- λmax [5]: 1,090 nm
- thermal decomposition point (the weight decrease starting point) [6]: around 256 °C

Structure (SMILES): CCN(CC)c1ccc([N+](=C2C=CC(=[N+](c3ccc(N(CC)CC)cc3)c3ccc(N(CC)CC)cc3)C=C2)c2ccc(N(CC)CC)cc2)cc1.O=S(=O)([N-]S(=O)(=O)C(F)(F)F)C(F)(F)F.O=S(=O)([N-]S(=O)(=O)C(F)(F)F)C(F)(F)F [Compound No. 12]
- molar absorption coefficient (ε) [1]: 96,000
- λmax [5]: 1,084 nm
- thermal decomposition point (the weight decrease starting point) [6]: around 278 °C

Structure (SMILES): N#CCCCN(CCCC#N)c1ccc([N+](=C2C=CC(=[N+](c3ccc(N(CCCC#N)CCCC#N)cc3)c3ccc(N(CCCC#N)CCCC#N)cc3)C=C2)c2ccc(N(CCCC#N)CCCC#N)cc2)cc1.[F][Sb-]([F])([F])([F])([F])[F].[F][Sb-]([F])([F])([F])([F])[F] [Compound No. 154, hexafluoroantimonate of N,N,N′,N′-tetrakis[p-di(3-cyanopropyl)aminophenyl]phenylene diimmonium, reference compound]
- solubility in MEK [4]: insoluble
- solubility in toluene [4]: insoluble

Structure (SMILES): CCCCN(CCCC)c1ccc([N+](=C2C=CC(=[N+](c3ccc(N(CCCC)CCCC)cc3)c3ccc(N(CCCC)CCCC)cc3)C=C2)c2ccc(N(CCCC)CCCC)cc2)cc1.F[B-](F)(F)F.F[B-](F)(F)F [Compound No. 156, borofluoride salt of N,N,N′,N′-tetrakis[p-di(n-butyl)aminophenyl]phenylene diimmonium, reference compound]
- b* value, difference [3]: 10.8
- b* value, 14-day after [3]: 14.3
- b* value, initial period [3]: 3.5

Structure (SMILES): CCCCN(CCCC)c1ccc([N+](=C2C=CC(=[N+](c3ccc(N(CCCC)CCCC)cc3)c3ccc(N(CCCC)CCCC)cc3)C=C2)c2ccc(N(CCCC)CCCC)cc2)cc1 [Compound No. 1]
- b* value, initial period [2]: 3.5
- b* value, 14-day after [2]: 5.3
- b* value, difference [2]: 1.8
- b* value, difference [3]: 1.8
- b* value, 14-day after [3]: 5.3
- b* value, initial period [3]: 3.5
- molar absorption coefficient (ε) [1]: 108,000
- λmax [5]: 1,102 nm
- thermal decomposition point (the weight decrease starting point) [6]: around 280 °C

Structure (SMILES): N#CCCCCN(CCCCC#N)c1ccc([N+](=C2C=CC(=[N+](c3ccc(N(CCCCC#N)CCCCC#N)cc3)c3ccc(N(CCCCC#N)CCCCC#N)cc3)C=C2)c2ccc(N(CCCCC#N)CCCCC#N)cc2)cc1.O=S(=O)([N-]S(=O)(=O)C(F)(F)F)C(F)(F)F.O=S(=O)([N-]S(=O)(=O)C(F)(F)F)C(F)(F)F [Compound No. 9]
- b* value, difference [3]: 1.9
- b* value, 14-day after [3]: 4.3
- b* value, initial period [3]: 2.4
- molar absorption coefficient (ε) [1]: 109,000
- λmax [5]: 1,086 nm
- thermal decomposition point (the weight decrease starting point) [6]: around 277 °C

Structure (SMILES): CC(C)CN(CC(C)C)c1ccc([N+](=C2C=CC(=[N+](c3ccc(N(CC(C)C)CC(C)C)cc3)c3ccc(N(CC(C)C)CC(C)C)cc3)C=C2)c2ccc(N(CC(C)C)CC(C)C)cc2)cc1 [Compound No. 2]
- b* value, initial period [2]: 2.2
- b* value, 14-day after [2]: 3.7
- b* value, difference [2]: 1.5
- b* value, difference [3]: 1.9
- b* value, 14-day after [3]: 4.1
- b* value, initial period [3]: 2.2
- molar absorption coefficient (ε) [1]: 109,000
- λmax [5]: 1,104 nm
- thermal decomposition point (the weight decrease starting point) [6]: around 282 °C

Structure (SMILES): CCCCN(CCCC)c1ccc([N+](=C2C=CC(=[N+](c3ccc(N(CCCC)CCCC)cc3)c3ccc(N(CCCC)CCCC)cc3)C=C2)c2ccc(N(CCCC)CCCC)cc2)cc1.F[P-](F)(F)(F)(F)F.F[P-](F)(F)(F)(F)F [Compound No. 155, hexafluorophosphate of N,N,N′,N′-tetrakis[p-di(n-butyl)aminophenyl]-p-phenylenediimmonium, reference compound]
- b* value, difference [3]: 6.1
- b* value, 14-day after [3]: 9.0
- b* value, initial period [3]: 2.9

Structure (SMILES): CCCCN(CCCC)c1ccc([N+](=C2C=CC(=[N+](c3ccc(N(CCCC)CCCC)cc3)c3ccc(N(CCCC)CCCC)cc3)C=C2)c2ccc(N(CCCC)CCCC)cc2)cc1.[F][Sb-]([F])([F])([F])([F])[F].[F][Sb-]([F])([F])([F])([F])[F] [Compound No. 153, hexafluoroantimonate of N,N,N′,N′-tetrakis[p-di(n-butyl)aminophenyl]phenylenediimmonium, reference compound]
- remaining ratio of diimmonium compound (%), 100-hour after [7, 9]: 81%
- remaining ratio of diimmonium compound (%), 150-hour after [7, 10]: 76%
- remaining ratio of diimmonium compound (%), initial period ([7]; thin film on polycarbonate, before irradiation): 100%
- b* value, initial period [2]: 2.5
- b* value, 14-day after [2]: 4.4
- b* value, difference [2]: 1.9
- solubility in MEK [4]: 4.5%
- solubility in toluene [4]: insoluble
- remaining ratio of cyanine dye (%), initial period ([8]; OM-57 dye film with compound added, before irradiation): 100%
- remaining ratio of cyanine dye (%), 100-hour after [8, 9]: 27%
- remaining ratio of cyanine dye (%), 150-hour after [8, 10]: 0%
